Here are results for 8 compounds from PubChem BioAssay AID1259411 (Chemical Carcinogenesis Research Information System (CCRIS), 2018).

Structures are written as SMILES. Calls of active or inactive are those of the source. No rule for the calls is given here.

The test system of this data set is rodent carcinogenicity bioassays, tumor incidence. In words: CCRIS carcinogenicity studies. The essentials: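 NCI-built, expert-reviewed records of carcinogenicity and related test outcomes (mutagenicity, tumor promotion/inhibition) compiled from published and report sources, historical span 1985-2011, not updated.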

Take `CCCN(C)N=O`: the carcinogen call was “active; positive” (Species: HAMSTER, Strain/Sex: SYRIAN/FEMALE, Route: GAVAGE, Dose: 0, 2.1 MG/KG 1/WK FOR 23-30 WK (TOTAL DOSE: 0; 0.6 MMOL) (STUDY DURATION: LIFETIME), Dose: 0, 2.1 MG/KG 1/WK FOR 23-30 WK (TOTAL DOSE: 0; 0.6 MMOL) (STUDY DURATION: LIFETIME), Tumor Site: Type of Lesion: LIVER: HEPATOCELLULAR ADENOMA, HEMANGIOSARCOMA, NASAL MUCOSA: CARCINOMA); “active; positive” (Species: HAMSTER, Strain/Sex: SYRIAN/MALE,FEMALE, Route: SUBCUTANEOUS, Dose: 12.5, 25, 50 MG/KG 1/WK, Dose: 12.5, 25, 50 MG/KG 1/WK, Tumor Site: Type of Lesion: NASAL CAVITY: CARCINOMA, EPIDERMOID TUMOR, MUCOEPIDERMOID TUMOR, TRACHEA: PAPILLARY POLYP, LUNG: ADENOMA, CARCINOMA, LIV, Tumor Site: Type of Lesion: NASAL CAVITY: CARCINOMA, EPIDERMOID TUMOR, MUCOEPIDERMOID TUMOR, TRACHEA: PAPILLARY POLYP, LUNG: ADENOMA, CARCINOMA, LIV); “active; positive” (Species: HAMSTER, Strain/Sex: SYRIAN/MALE, Route: GAVAGE, Dose: 0, 2.1 MG/KG 1/WK FOR 23-30 WK (TOTAL DOSE: 0; 0.6 MMOL) (STUDY DURATION: LIFETIME), Dose: 0, 2.1 MG/KG 1/WK FOR 23-30 WK (TOTAL DOSE: 0; 0.6 MMOL) (STUDY DURATION: LIFETIME), Tumor Site: Type of Lesion: LIVER: HEPATOCELLULAR ADENOMA, HEMANGIOSARCOMA, LUNG: ALVEOLAR/BRONCHIAL ADENOMA, NASAL MUCOSA: CARCINOMA, Tumor Site: Type of Lesion: LIVER: HEPATOCELLULAR ADENOMA, HEMANGIOSARCOMA, LUNG: ALVEOLAR/BRONCHIAL ADENOMA, NASAL MUCOSA: CARCINOMA); “active; positive” (Species: MOUSE, Strain/Sex: NMRI/FEMALE, Route: SUBCUTANEOUS, Dose: 0.05, 0.1, 0.2 OF LD50 (77.1 MG/KG) 1/WK FOR LIFE, Dose: 0.05, 0.1, 0.2 OF LD50 (77.1 MG/KG) 1/WK FOR LIFE, Tumor Site: Type of Lesion: NASAL CAVITY: SQUAMOUS CELL PAPILLOMA, SQUAMOUS CELL CARCINOMA, LARYNX: PAPILLOMA, CARCINOMA (IN SITU), SQUAMOUS CELL CA).
As for `Nc1cc(Cl)nc(C(=O)O)c1Cl`, the carcinogen call reads like this: (Species: Mouse, Strain/Sex: CD-1/Female, Route: Oral, Dose: 0, 5, 250, 1000 mg/kg/d in feed for 18 mo, Dose: 0, 5, 250, 1000 mg/kg/d in feed for 18 mo) “inactive; negative; purity was 94.5%”; (Species: Mouse, Strain/Sex: CD-1/Male, Route: Oral, Dose: 0, 5, 250, 1000 mg/kg/d in feed for 18 mo, Dose: 0, 5, 250, 1000 mg/kg/d in feed for 18 mo) “inactive; negative; purity was 94.5%”; (Species: Rat, Strain/Sex: F344/Female, Route: Oral, Dose: 0, 5, 50, 500, 1000 mg/kg/d in feed for 24 mo, Dose: 0, 5, 50, 500, 1000 mg/kg/d in feed for 24 mo) “inactive; negative; purity was 94.5%”; (Species: Rat, Strain/Sex: F344/Male, Route: Oral, Dose: 0, 5, 50, 500, 1000 mg/kg/d in feed for 24 mo, Dose: 0, 5, 50, 500, 1000 mg/kg/d in feed for 24 mo) “inactive; negative; purity was 94.5%”.
As for `C/C=C/Cl`, for the setting “Species: MOUSE, Strain/Sex: ICR/FEMALE, Route: GAVAGE, Dose: 1.0 MG IN 0.1 ML TRIOCTANOIN 1/WK, Tumor Site: Type of Lesion: FORESTOMACH: SQUAMOUS CELL CARCINOMA”, the carcinogen call was “active; positive”.
`CC(=O)N(O[C@@H]1O[C@H](C(=O)O)[C@@H](O)[C@H](O)[C@H]1O)c1ccc2c(c1)Cc1ccccc1-2`: the carcinogen call (Species: RAT, Strain/Sex: F344/MALE, Route: INJECTION, Dose: 0, 1 UMOL IN 0.5 ML OF SOLUTION CONTAINING 0.4 ML PHOSPHATE BUFFERED SALINE/ GENTAMYCIN (PH 7) AND 0.1 ML DMSO INJECTED) was “inactive; negative” and the carcinogen call (Species: RAT, Strain/Sex: F344/MALE, Route: INJECTION, Dose: 0, 1 UMOL IN 0.5 ML OF SOLUTION CONTAINING 0.4 ML PHOSPHATE BUFFERED SALINE/ GENTAMYCIN (PH 8) AND 0.1 ML DMSO INJECTED) is “inactive; negative”.
As to `CCCO`, the carcinogen call (Species: DOG, Strain/Sex: BEAGLE/FEMALE, Route: GAVAGE, Dose: 0, 30, 180 MG/KG/D 7 D/WK FOR 52 WK (STUDY DURATION: 52 WK), Dose: 0, 30, 180 MG/KG/D 7 D/WK FOR 52 WK (STUDY DURATION: 52 WK)) is “inactive; negative”; the carcinogen call (Species: DOG, Strain/Sex: BEAGLE/MALE, Route: GAVAGE, Dose: 0, 30, 180 MG/KG/D 7 D/WK FOR 52 WK (STUDY DURATION: 52 WK), Dose: 0, 30, 180 MG/KG/D 7 D/WK FOR 52 WK (STUDY DURATION: 52 WK)) is “inactive; negative”; the carcinogen call (Species: MONKEY, Strain/Sex: MACACA ARCTODIES/MALE, Route: ORAL, Dose: 0, 0.25, 2.5, 25 MG/KG 1/D FOR 54 WK (STUDY DURATION: 54 WK), Dose: 0, 0.25, 2.5, 25 MG/KG 1/D FOR 54 WK (STUDY DURATION: 54 WK)) is “inactive; negative”; the carcinogen call (Species: MOUSE, Strain/Sex: SWISS/FEMALE, Route: GAVAGE, Dose: 0, 50, 500 MG/KG/D FOR 18 MO (STUDY DURATION: 18 MO), Dose: 0, 50, 500 MG/KG/D FOR 18 MO (STUDY DURATION: 18 MO)) was “inactive; negative”; the carcinogen call (Species: MOUSE, Strain/Sex: SWISS/MALE, Route: GAVAGE, Dose: 0, 50, 500 MG/KG/D FOR 18 MO (STUDY DURATION: 18 MO), Dose: 0, 50, 500 MG/KG/D FOR 18 MO (STUDY DURATION: 18 MO)) was “inactive; negative”; the carcinogen call (Species: RAT, Strain/Sex: SPRAGUE-DAWLEY/FEMALE, Route: GAVAGE, Dose: 0, 50, 500 MG/KG 1/D FOR 24 MO (STUDY DURATION: 24 MO), Dose: 0, 50, 500 MG/KG 1/D FOR 24 MO (STUDY DURATION: 24 MO)) is “inactive; negative”. Besides, the carcinogen call (Species: RAT, Strain/Sex: SPRAGUE-DAWLEY/MALE, Route: GAVAGE, Dose: 0, 50, 500 MG/KG 1/D FOR 24 MO (STUDY DURATION: 24 MO), Dose: 0, 50, 500 MG/KG 1/D FOR 24 MO (STUDY DURATION: 24 MO)) is “inactive; negative”.
Turning to `COC(=O)c1cc(Oc2ccc(Cl)cc2Cl)ccc1[N+](=O)[O-]`, the carcinogen call was “inactive; negative; purity 98.3%” (Species: Mouse, Strain/Sex: B6C3F1/Female (60/sex/group), Route: Oral, Dose: 0, 50, 200, 1000 ppm in feed for 24 mo, Dose: 0, 50, 200, 1000 ppm in feed for 24 mo); “active; positive; purity 98.3%” (Species: Mouse, Strain/Sex: B6C3F1/Male (60/sex/group), Route: Oral, Dose: 0, 50, 200, 1000 ppm in feed for 24 mo, Dose: 0, 50, 200, 1000 ppm in feed for 24 mo, Tumor Site: Type of Lesion: Liver: Significant increase in hepatic adenomas and carcinomas at highest dose); “inactive; negative; purity 98%” (Species: Rat, Strain/Sex: Sprague-Dawley/Female (50/sex/group), Route: Oral, Dose: 0, 500, 1580, 5000 ppm in feed for 104 wk, Dose: 0, 500, 1580, 5000 ppm in feed for 104 wk); “inactive; negative; purity 98%” (Species: Rat, Strain/Sex: Sprague-Dawley/Male (50/sex/group), Route: Oral, Dose: 0, 500, 1580, 5000 ppm in feed for 104 wk, Dose: 0, 500, 1580, 5000 ppm in feed for 104 wk).
With `O=[N+]([O-])c1ccc2c3c1ccc1cccc(c13)[C@@H]1O[C@H]21`, the carcinogen call runs as follows: (Species: MOUSE, Strain/Sex: B6C3F1/FEMALE, Route: INTRAPERITONEAL, Dose: 0, 7 NMOL (TOTAL DOSE), 1/7, 2/7 AND 4/7 OF THE TOTAL DOSE ADMINISTERED WITHIN 24 HR OF BIRTH AND AT 8 AND 15 D OF AGE) “inactive; negative”; (Species: MOUSE, Strain/Sex: B6C3F1/MALE, Route: INTRAPERITONEAL, Dose: 0, 7 NMOL (TOTAL DOSE), 1/7, 2/7 AND 4/7 OF THE TOTAL DOSE ADMINISTERED WITHIN 24 HR OF BIRTH AND AT 8 AND 15 D OF AGE) “inactive; negative”.
With `O=[N+]([O-])c1cc([N+](=O)[O-])c2ccc(S(=O)(=O)O)cc2c1O`, the carcinogen call (Species: MOUSE, Strain/Sex: SWISS-WEBSTER/FEMALE, Route: DERMAL, Dose: 0, 1% IN 0.1 ML DISTILLED WATER 1/WK FOR 18 MO (STUDY DURATION: 18 MO)) was “inactive; negative” and the carcinogen call (Species: MOUSE, Strain/Sex: SWISS-WEBSTER/MALE, Route: DERMAL, Dose: 0, 1% IN 0.1 ML DISTILLED WATER 1/WK FOR 18 MO (STUDY DURATION: 18 MO)) was “inactive; negative”.
